Results as given in patent publication US6855730B2, “3-methylidenyl-2-indolinone modulators of protein kinase” (Sugen, Inc., priority 1998, dated 2005).

Biological target: T1, PDGFR-β (Homo sapiens, UniProt P09619)
T1 construct: host or cells: NIH 3T3
Assay: Biochemical PDGFR assay (ELISA, PDGFR-β expressing NIH 3T3 cell lysate)
Details: read-out: bio PDGF IC50
From the text: This assay measures the in vitro kinase activity of PDGFR using ELISA.
Unless otherwise noted, the preparation of working solution-of the following reagents is the same as that for the Biochemical EGFR assay, above. • 1. […] 28D4C10 monoclonal anti-PDGFR antibody (Biochemistry Lab, SUGEN, Inc.). • 3. PBS (Dulbecco's Phosphate-Buffered Saline, Gibco Catalog No. 450-1300EB) • 4. TBST Buffer. • 5. Blocking Buffer. • 6. PDGFR-β expressing NIH 3T3 cell lysate (Screening Lab, SUGEN, Inc.). • 7. TBS Buffer. • 8. TBS+10% DMSO. • 9. […] MnCl2. • 11. Kinase buffer phosphorylation mix.
• 12. NUNC 96-well V bottom polypropylene plates (Applied Scientific Cat. No. AS-72092). • 13. Ethylenediaminetetraacetic acid (EDTA). • 14. Rabbit polyclonal anti-phosphotyrosine serum (Biochemistry Lab, SUGEN, Inc.). • 15. Goat anti-rabbit IgG peroxidase conjugate (Biosource Cat. No. ALI0404). • 16. 2,2′-azino-bis(3-ethylbenzthiazoline-6-sulfonic acid) (ABTS, Sigma Cat. No. A-1888). • 17. Hydrogen peroxide 30% solution (Fisher Cat. No. H325). • 18. ABTS/H2O2. • 19. 0.2 M HCl.
Procedure • 1. Coat Corning 96 well ELISA plates with 0.5 μg 28D4C10 in 100 μl PBS per well, store overnight at 4° C. • 2. Remove unbound 28D4C10 from wells by inverting plate to remove liquid. Wash 1× with dH2O. Pat the plate on a paper towel to remove excess liquid. • 3. Add 150 μl of Blocking Buffer to each well. Incubate for 30 min. at room temperature with shaking. • 4. Wash plate 3× with deionized water, then once with TBST. Pat plate on a paper towel to remove excess liquid and bubbles. • 5. Dilute lysate in HNTG (10 μg lysate/100 μl HNTG) • 6. Add 100 μl of diluted lysate to each well. Shake at room temperature for 60 min. • 7. Wash plates as described in 4, above. • 8. Add 80 μl working kinase buffer mix to ELISA plate containing captured PDGFR. • 9. Dilute test compound 1:10 in TBS in 96-well polypropylene plates (i.e., 10 μl compound+90 μl TBS). • 10. Add 10 μl diluted test compound to ELISA plate. […] Incubate for 30 minutes while shaking at room temperature. • 12. Add 10 μl ATP directly to all wells except negative control well (final well volume should be approximately 100 μl with 20 μM ATP in each well.) Incubate 30 minutes while shaking. • 13. After 30 minutes, stop reaction by adding 10 μl of 200 mM EDTA (pH 8.0) to each well. • 14. Wash 4× with deionized water, twice with TBST. • 15. Add 100 μl anti-phosphotyrosine (1:3000 dilution in TBST) per well. Incubate 30-45 min. at room temperature, with shaking. • 16. Wash as described in 4, above. • 17. Add 100 μl Biosource Goat anti-rabbit IgG peroxidase conjugate (1:2000 dilution in TBST) to each well. Incubate 30 min. at room temperature, with shaking. • 18. Wash as described in 4, above. • 19. Add 100 μl of ABTS/H2O2 solution to each well. • 20. Incubate 10 to 30 minutes with shaking. Remove any bubbles. • 21. If necessary stop reaction with the addition of 100 μl 0.2 M HCl per well. • 22. Read assay on Dynatech MR7000 ELISA reader: test filter: 410 nM, reference filter: 630 nM.

T1 sequence (P09619 33-1106): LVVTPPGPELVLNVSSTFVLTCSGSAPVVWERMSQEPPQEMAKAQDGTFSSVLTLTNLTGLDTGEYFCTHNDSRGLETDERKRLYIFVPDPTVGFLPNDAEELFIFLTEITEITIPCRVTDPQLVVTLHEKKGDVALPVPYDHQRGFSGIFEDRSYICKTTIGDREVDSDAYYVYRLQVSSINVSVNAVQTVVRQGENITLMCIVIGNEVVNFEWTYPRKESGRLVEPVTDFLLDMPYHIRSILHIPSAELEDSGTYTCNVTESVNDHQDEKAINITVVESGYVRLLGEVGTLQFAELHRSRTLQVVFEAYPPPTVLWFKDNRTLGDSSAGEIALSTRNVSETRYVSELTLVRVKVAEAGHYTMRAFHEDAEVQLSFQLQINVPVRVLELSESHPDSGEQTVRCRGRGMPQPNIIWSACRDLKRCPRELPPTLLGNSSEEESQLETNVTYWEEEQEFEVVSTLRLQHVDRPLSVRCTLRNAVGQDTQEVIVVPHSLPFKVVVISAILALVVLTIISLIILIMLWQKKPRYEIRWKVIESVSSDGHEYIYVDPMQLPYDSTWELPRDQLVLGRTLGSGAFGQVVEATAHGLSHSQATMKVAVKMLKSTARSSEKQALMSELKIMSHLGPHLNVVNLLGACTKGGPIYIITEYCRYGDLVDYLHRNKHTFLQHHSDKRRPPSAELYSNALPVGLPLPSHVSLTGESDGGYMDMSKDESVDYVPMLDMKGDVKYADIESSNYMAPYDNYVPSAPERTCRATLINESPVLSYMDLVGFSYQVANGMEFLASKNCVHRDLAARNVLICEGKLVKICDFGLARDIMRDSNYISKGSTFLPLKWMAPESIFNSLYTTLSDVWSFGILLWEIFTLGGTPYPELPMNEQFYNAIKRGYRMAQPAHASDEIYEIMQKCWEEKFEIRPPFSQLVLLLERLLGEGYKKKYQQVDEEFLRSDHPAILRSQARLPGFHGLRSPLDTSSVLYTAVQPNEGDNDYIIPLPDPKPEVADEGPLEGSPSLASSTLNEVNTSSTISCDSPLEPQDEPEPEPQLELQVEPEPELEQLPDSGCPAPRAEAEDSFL

In order of rising IC50:
1. CCOC(=O)c1c(C)[nH]c(/C=C2\C(=O)Nc3ccc(OC)cc32)c1CCCN1CCCC1 [Example 127, 5-(5-Methoxy-2-oxo-1,2-dihydroindol-3-ylidenemethyl)-2-methyl-4-(3-pyrrolidin-1-ylpropyl)-1H-pyrrole-3-carboxylic acid ethyl ester]  0.96 µM
2. CCOC(=O)c1c(C)[nH]c(/C=C2\C(=O)Nc3ccc(C(=O)O)cc32)c1CCCN(C)C [Example 134, 3-[3-(3-Dimethylaminopropyl)-4-ethoxycarbonyl-5-methyl-1H-pyrrol-2-ylmethylene]-2-oxo-2,3-dihydro-1H-indole-5-carboxylic acid]  4.88 µM
3. CCOC(=O)c1c(C)[nH]c(/C=C2\C(=O)Nc3ccc(C(=O)O)cc32)c1CCCN1CCOCC1 [Example 125, 3-[4-Ethoxycarbonyl-5-methyl-3-(3-morpholin-4-ylpropyl)-1H-pyrrol-2-ylmethylene]-2-oxo-2,3-dihydro-1H-indole-5-carboxylic acid]  5.73 µM
4. CCOC(=O)c1c(C)[nH]c(/C=C2\C(=O)Nc3ccc(C(=O)O)cc32)c1CCCN1CCCC1 [Example 128, 3-[4-Ethoxycarbonyl-5-methyl-3-(3-pyrrolidin-1-ylpropyl)-1H-pyrrol-2-ylmethylene]-2oxo-2,3-dihydro-1H-indole-5-carboxylic acid]  17.1 µM
5. CCOC(=O)c1c(C)[nH]c(/C=C2\C(=O)Nc3ccc(C(=O)O)cc32)c1CCCN1CCN(C)CC1 [Compound 129, 3-{4-Ethoxycarbonyl-5-methyl-3-(3-(4-methyl-piperazin-1-yl)-propyl]-1H-pyrrol-2-ylmethylene)-2-oxo-2,3-dihydro-1H-indole-5-carboxylic acid]  31.7 µM
